Experimental data as given in US8008303B2, “Biphenyl derivatives and their use in treating hepatitis C” (AstraZeneca AB, priority 2005, dated 2011).
Read-outs that look alike come from different tables or passages of the source.

Columns and labels:
[1] = test system: HCV replicon cells Huh 9B; format: cell-based
Method: (§1) HCV replicon cells Huh 9B (ReBlikon), containing the firefly luciferase-ubiquitin-neomycin phosphotransferase fusion protein and EMCV-IRES driven HCV polyprotein with cell culture adaptive mutations.
A flask of cells was trypsinised and a cell count carried out. […] Wells G12 and H12 were left empty in the clear plate as the blank. Plates were then incubated at 37° C. in a 5% CO2 environment for 24 h.
(§2) On the following day compound dilutions are made up in medium at twice their desired final concentration in a clear round bottomed plate. All dilutions have a final DMSO concentration of 1%.
Exception: no compound was added to wells A1 and A2 of either plate and 100 μl of 1% DMSO was added to these instead. Plates were then incubated at 37° C. with 5% CO2 for 72 h.
The clear plate was stained with 100 μl 0.5% methylene blue in 50% ethanol at room temperature for 1 h, followed by solvation of the absorbed methylene blue in 100 μl per well of 1% lauroylsarcosine. Absorbance of the plate was measured on a microplate spectrophotometer (Molecular Devices) and the absorbance for each concentration of compound expressed as a proportion of the relative DMSO control.

[2] = test system: HCV replicon cells Huh 9B; assay: HCV replicon assay (luciferase readout); format: cell-based
Method: as §1
Cells were cultured at 37° C. in a 5% CO2 environment and split twice a week on seeding at 2×10^6 cells/flask on day 1 and 1×10^6 3 days later. G418 at 0.5 mg/ml was added to the culture medium but not the assay medium.
The culture medium consisted of DMEM with […] glucose and glutamax (Gibco 61965-026) supplemented with 1× non-essential amino acids (Invitrogen 11140-035), penicillin (100 IU/ml)/streptomycin (100 μg/ml) (Invitrogen 15140-122), FCS (10%, 50 ml) and 1 mg/ml G418 (Invitrogen 10131-027) & 10% Australian foetal calf serum (Invitrogen 10099-141).
A flask of cells was trypsinised and a cell count carried out. Cells were diluted to 100,000 cells/ml and 100 μl of this used to seed one opaque white 96-well plate (for the replicon assay) and one flat-bottomed clear plate (for the tox assay) for every seven compounds to be tested for IC50. Wells G12 and H12 were left empty in the clear plate as the blank. Plates were then incubated at 37° C. in a 5% CO2 environment for 24 h.
as §2
Once the dilution plate had been made up, controls and compounds were transferred to the assay plate (containing the cells) at 100 μl /well in duplicate plates. Exception: no compound was added to wells A1 and A2 of either plate and 100 μl of 1% DMSO was added to these instead. Plates were then incubated at 37° C. with 5% CO2 for 72 h.
At the end of the incubation time, the cells in the white plate were harvested by washing 23.5 mM beetle luciferin (Promega E1603), 26 mM ATP (Sigma 0-2060) in […] Tris buffer pH 7.8 aliquoted and stored at −80 C was thawed and diluted 1:50 in luciferase assay buffer (20 mM Tricine (Sigma T-0377), 1.07 mM magnesium carbonate hydroxide (Sigma M-5671), 0.1 mM EDTA (Sigma E-5134), 2.67 mM MgSO4 (BDH 101514Y), 33.3 mM dithiothreitol (Sigma 150460) pH 7.8).
The M injector of the microplate luminometer (Lmax, Molecular Devices) was primed with 5×300 μl injections of the diluted substrate. After 5-60 min incubation in lysis buffer at room temperature, a plate was inserted into the luminometer and 100 μl luciferase assay reagent was added by the injector on the luminometer. The signal was measured using a 1 second delay followed by a 4 second measurement programme.

[3] = concentration reducing total cell area by 50% relative to DMSO controls, methylene blue, absorbance 620 nm, 72 h incubation
[4] = Hepatitis C virus, 72 h, concentration reducing replicon level (luciferase activity) by 50% vs untreated cell control, 72 h incubation

| SMILES | TD50 [1, 3] | IC50 [2, 4] [µM] | TD50 [1] | IC50 [2] [µM] |
| --- | --- | --- | --- | --- |
| Cc1ccc(NS(=O)(=O)c2ccc(Cl)s2)cc1-c1ccc(C(=O)Nc2ccc(CN3CCS(=O)(=O)CC3)cc2)cc1 [Example 204, 5′-(5-Chloro-thiophene-2-sulfonylamino)-2′-methyl-biphenyl-4-carboxylic acid [4-(1,1-dioxo-1lambda*6*-thiomorpholin-4-ylmethyl)-phenyl]-amide] | * (* < 50 μM) | 1 to 5 |  |  |
| COc1cccc(C(=O)Nc2ccc(-c3cccc(C(=O)Nc4ccc(N5CCOCC5)cc4)c3)c(C)c2)c1 [Example 116, 4′-(3-Methoxy-benzoylamino)-2′-methyl-biphenyl-3-carboxylic acid (4-morpholin-4-yl-phenyl)-amide] | * (* < 50 μM) | 1 to 5 |  |  |
| Cc1ccc(C(=O)Nc2ccc(N3CCOCC3)cc2)cc1-c1ccc(CNC2CC2)cc1 [Example 98, 4′-Cyclopropylaminomethyl-6-methyl-biphenyl-3-carboxylic acid (4-morpholin-4-yl-phenyl)-amide] | * (* < 50 μM) | 1 to 5 |  |  |
| Cc1ccc(C(=O)Nc2ccc(N3CCOCC3)cc2)cc1-c1ccc(NC(=O)CNC(=O)c2ccccc2)cc1 [Example 105, 4′-(2-Benzoylamino-acetylamino)-6-methyl-biphenyl-3-carboxylic acid (4-morpholin-4-yl-phenyl)-amide] | ** (** > 50 μM) | 1 to 5 |  |  |
| COc1ccc(NC(=O)C2CC2)cc1-c1ccc(C(=O)Nc2ccc(CN3CCS(=O)(=O)CC3)cc2)cc1 [Example 186, 5′-(Cyclopropanecarbonyl-amino)-2′-methoxy-biphenyl-4-carboxylic acid [4-(1,1-dioxo-1lambda*6*-thiomorpholin-4-ylmethyl)-phenyl]-amide] | * (* < 50 μM) | < 1 |  |  |
| Cc1ccc(NC(=O)C2CCCCC2)cc1-c1ccc(C(=O)Nc2ccc(CN(C)C)cc2)cc1 [Example 222, 5′-(Cyclohexanecarbonyl-amino)-2′-methyl-biphenyl-4-carboxylic acid (4-dimethylaminomethyl-phenyl)-amide] | * (* < 50 μM) | 1 to 5 |  |  |
| CNCC(=O)Nc1ccc(Cl)c(-c2ccc(C(=O)Nc3ccc(CN4CCN(S(C)(=O)=O)CC4)cc3)cc2)c1 [Example 252, 2′-Chloro-5′-(2-methylamino-acetylamino)-biphenyl-4-carboxylic acid [4-(4-methanesulfonyl-piperazin-1-ylmethyl)-phenyl]-amide] | * (* < 50 μM) | < 1 |  |  |
| Cc1ccc(C(=O)Nc2ccc(N3CCOCC3)cc2)cc1-c1ccc(C(=O)NCCC(C)C)cc1 [Example 4, 6-Methyl-biphenyl-3,4′-dicarboxylic acid 4′-[(3-methyl-butyl)-amide] 3-[(4-morpholin-4-yl-phenyl)-amide]] |  |  | ** (key: * < 50 μM; ** > 50 μM) | 1 to 5 |
| Cc1ccc(NC(=O)c2ccc(F)cc2)cc1-c1ccc(C(=O)Nc2ccc(CN3CCS(=O)(=O)CC3)cc2)cc1 [Example 159, 5′-(4-Fluoro-benzoylamino)-2′-methyl-biphenyl-4-carboxylic acid [4-(1,1-dioxo-1lambda*6*-thiomorpholin-4-ylmethyl)-phenyl]-amide] | * (* < 50 μM) | < 1 |  |  |
| Cc1ccc(C(=O)Nc2ccc(N3CCOCC3)cc2)cc1-c1ccc(C(=O)NCc2cccc(OC(F)(F)F)c2)cc1 [Example 41, 6-Methyl-biphenyl-3,4′-dicarboxylic acid 3-[(4-morpholin-4-yl-phenyl)-amide] 4′-(3-trifluoromethoxy-benzylamide)] |  |  | ** (key: * < 50 μM; ** > 50 μM) | < 1 |
| Cc1ccc(C(=O)Nc2ccc(N3CCOCC3)cc2)cc1-c1ccc(C(=O)Nc2ccc(C(=O)N(C)C)cc2)cc1 [Example 70, 6-Methyl-biphenyl-3,4′-dicarboxylic acid 4′-[(4-dimethylcarbamoyl-phenyl)-amide] 3-[(4-morpholin-4-yl-phenyl)-amide]] |  |  | * (key: * < 50 μM; ** > 50 μM) | 1 to 5 |
| Cc1ccc(C(=O)NC2CC2)cc1-c1ccc(C(=O)Nc2ccc(N3CCOCC3)cc2)cc1 [Example 17, 6-Methyl-biphenyl-3,4′-dicarboxylic acid 3-cyclopropylamide 4′-[(4-morpholin-4-yl-phenyl)-amide]] |  |  | * (key: * < 50 μM; ** > 50 μM) | 1 to 5 |
| Cc1ccc(C(=O)Nc2ccc(N3CCOCC3)cc2)cc1-c1ccc(CN[C@@H](CO)C(=O)O)cc1 [Example 99, (S)-3-Hydroxy-2-{[2′-methyl-5′-(4-morpholin-4-yl-phenylcarbamoyl)-biphenyl-4-ylmethyl]-amino}-propionic acid] | ** (** > 50 μM) | 1 to 5 |  |  |
| Cc1ccc(C(=O)Nc2ccc(N3CCOCC3)cc2)cc1-c1ccc(NC(=O)c2ccc(CN3CCOCC3)cc2)cc1 [Example 118, 6-Methyl-4′-(4-morpholin-4-ylmethyl-benzoylamino)-biphenyl-3-carboxylic acid (4-morpholin-4-yl-phenyl)-amide] | * (* < 50 μM) | > 5 |  |  |
| CS(=O)(=O)N1CCN(Cc2ccc(NC(=O)c3ccc(-c4cc(NC(=O)[C@H]5CCCN5)ccc4Cl)cc3)cc2)CC1 [Example 250, (R)-Pyrrolidine-2-carboxylic acid {6-chloro-4′-[4-(4-methanesulfonyl-piperazin-1-ylmethyl)-phenylcarbamoyl]-biphenyl-3-yl}-amide] | * (* < 50 μM) | < 1 |  |  |
| Cc1ccc(NC(=O)c2ccc(N3CCOCC3)cc2)cc1-c1ccc(C(=O)NCc2cccc(Cl)c2)cc1 [Example 94, 2′-Methyl-5′-(4-morpholin-4-yl-benzoylamino)-biphenyl-4-carboxylic acid 3-chloro-benzylamide] | ** (** > 50 μM) | 1 to 5 |  |  |
| Cc1ccc(NC(=O)c2cscn2)cc1-c1ccc(C(=O)Nc2ccc(CN3CCS(=O)(=O)CC3)cc2)cc1 [Example 177, Thiazole-4-carboxylic acid {4′-[4-(1,1-dioxo-1lambda*6*-thiomorpholin-4-ylmethyl)-phenylcarbamoyl]-6-methyl-biphenyl-3-yl}-amide] | * (* < 50 μM) | 1 to 5 |  |  |
| Cc1ccc(C(=O)NCCc2cnc[nH]2)cc1-c1ccc(C(=O)Nc2ccc(CN3CCS(=O)(=O)CC3)cc2)cc1 [Example 127, 6-Methyl-biphenyl-3,4′-dicarboxylic acid 4′-{[4-(1,1-dioxo-1lambda*6*-thiomorpholin-4-ylmethyl)-phenyl]-amide} 3-{[2-(3H-imidazol-4-yl) -ethyl]-amide}] |  |  | * (key: * < 50 μM; ** > 50 μM) | 1 to 5 |
| Cc1ccc(NC(=O)CC2CCCCC2)cc1-c1ccc(C(=O)Nc2ccc(CN3CCS(=O)(=O)CC3)cc2)cc1 [Example 165, 5′-(2-Cyclohexyl-acetylamino)-2′-methyl-biphenyl-4-carboxylic acid [4-(1,1-dioxo-1lambda*6*-thiomorpholin-4-ylmethyl)-phenyl]-amide] | * (* < 50 μM) | < 1 |  |  |
| Cc1ccc(NC(=O)c2ccc(CN3CCS(=O)(=O)CC3)cc2)cc1-c1ccc(C(=O)NCc2cccc(Cl)c2)cc1 [Example 162, 5′-[4-(1,1-Dioxo-1lambda*6*-thiomorpholin-4-ylmethyl)-benzoylamino]-2′-methyl-biphenyl-4-carboxylic acid 3-chloro-benzylamide] | * (* < 50 μM) | 1 to 5 |  |  |
| Cc1ccc(C(=O)Nc2ccc(N3CCOCC3)cc2)cc1-c1ccc(C(=O)Nc2ccccc2CN(C)C2CCCCC2)cc1 [Example 35, 6-Methyl-biphenyl-3,4′-dicarboxylic acid 4′-({2-[(cyclohexyl-methyl-amino)-methyl]-phenyl}-amide) 3-[(4-morpholin-4-yl-phenyl)-amide]] |  |  | ** (key: * < 50 μM; ** > 50 μM) | > 5 |
